# Laboratory results as given in PubChem BioAssay AID179 (DTP/NCI, 2004).
# Activity calls are given as the source filed them.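 How the source made its calls: active means compounds giving half or more protection of infected cells from virus-caused growth loss, again on retest; inactive means the rest.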 Where a SMILES comes first, the peptide text is derived from it. [ ]: non-standard residue; d: D form. The star is where a group is joined. Phe(4-NO2) = N[CH](Cc1ccc([N+](=O)[O-])cc1)C(=O)O; Phe(4-Cl) = N[CH](Cc1ccc(Cl)cc1)C(=O)O; 2Nal = N[CH](Cc1ccc2ccccc2c1)C(=O)O; 3Pal = N[CH](Cc1cccnc1)C(=O)O; Boc = CC(C)(C)OC(=O)*; OtBu = CC(C)(C)O*
# Test system: CEM cells HIV-1 protection, formazan growth assay
# Test: NCI AIDS Antiviral Assay
# Conditions: for IC50: measured here: growth of uninfected CEM cells
# How it was run: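 Five concentrations of each compound were applied to infected and uninfected human CEM cells. Protection from HIV-1 was judged from growth measured with a soluble formazan assay.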
Structure (SMILES),EC50 [µM],IC50 [µM],outcome
Cc1nc2c(=O)[nH]ncc2[nH]1,> 200,> 200,–
Cc1ccn2c(=O)cc(CN3CCOCC3)nc2c1,> 200,> 200,–
CCC(=O)OCNC(=O)NNC(=O)CCCC(=O)NNC(=O)NCOC(=O)CC,> 200,> 200,–
CN1CC(c2ccccc2)N(CCCCN2CC(c3ccccc3)N(C)CC2c2ccccc2)CC1c1ccccc1 (stereo not drawn),> 100,58.9,–
c1ccc2c(c1)n1c(N3CCOCC3)[n+]3ccccc3c1c1c3cccc[n+]3c(N3CCOCC3)n21,123,145,–
Cc1c([N+](=O)[O-])c(=O)oc2cc3occc(=O)c3cc12,> 36.3,18.2,–
CC(=O)OCC(=O)[C@@]1(O)CC[C@H]2[C@@H]3C[C@H](C)C4=CC(=O)C=C[C@]4(C)[C@@]3(Br)[C@@H](O)C[C@@]21C,–,–,inactive
OC(Cc1ccc2ccccc2c1)CN1CCC(c2ccccc2)CC1 (stereo not drawn),> 93.3,37.2,–
CC(=O)OC1CCn2nnc(CO[Si](C)(C)C(C)(C)C)c21 (stereo not drawn),–,–,inactive
Nc1nc2ccccc2n1CC(=O)NC12CC3CC(CC(C3)C1)C2,> 79.4,36.3,–
CC(C)(C)c1noc2c1C(=O)c1ccccc1-2,> 200,83.2,–
CC1CCCC2(C1)OCC(O)CO2 (stereo not drawn),–,–,inactive
CC(=O)OCc1cc(-c2nc3ccccc3[nH]c2=O)nn1-c1ccc(Cl)cc1,> 200,> 200,–
CC(C)CC(NC(=O)CNC(=O)C(CC(C)C)NC(=O)C(Cc1c[nH]cn1)NC(=O)C(CC(N)=O)NC(=O)C1CCCN1C(=O)C(C)NC(=O)C(Cc1ccc(O)cc1)NC(=O)C(C)NC(=O)C1CCCN1C(=O)C(CCC(=O)O)NC(=O)C(CC(=O)O)NC(=O)C(Cc1ccccc1)NC(=O)C(CC(N)=O)NC(=O)C(C)N)C(=O)O (stereo not drawn) (H-ANFDEPAYAPNHLGL-OH; configuration not given here),> 38,> 38,–
NP(=O)(OCC1=CC(=O)c2ccccc2C1=O)N(CCBr)CCBr (stereo not drawn),–,–,inactive
COC(=O)C(Cc1ccc([N+](=O)[O-])cc1)NC(=O)C(CC(=O)OC(C)(C)C)NC(=O)OC(C)(C)C (stereo not drawn) (Boc-Asp(OtBu)-[Phe(4-NO2)]-OMe; configuration not given here),> 200,93.3,–
CCC/C(Cl)=N/OC(=O)Nc1ccccc1C(F)(F)F,> 20,3.39,–
Cc1ccc(N=C2SC(c3ccc(C)cc3)(c3ccc(C)cc3)c3ccccc32)cc1,> 200,> 200,–
CC(C)C(/C=C/c1ccccc1)=N\NC(=O)N/N=C(/C=C/c1ccccc1)C(C)C,> 6.76,> 6.76,–
CC(C#N)(NO)C(C)(C#N)NO (stereo not drawn),> 200,> 200,–
O=C1C=C(c2ccccc2)C(c2ccccc2)C1O (stereo not drawn),> 200,135,–

Structure (SMILES),EC50 [µM],IC50 [µM],outcome
CC(C(N)=O)N(C)C(=O)c1cc2ccccc2[n+](Cc2ccccc2)c1 (stereo not drawn),–,–,inactive
CCC(C)(C(=O)O)C(=O)O,> 200,> 200,–
COc1ccc(N=Cc2c(O)ccc3c2oc2cc(Cl)c(O)c(Cl)c23)cc1,> 200,2.95,–
CCN(CC)CP(CN(CC)CC)CN(CC)CC,> 200,126,–
COc1cc(Br)c(CCC#N)cc1OC,> 347,37.2,–
C[C@@H](COCP(=O)(O)O)n1cnc2c(N)ncnc21,> 200,> 200,–
COc1cc(/C=C/C=C2\CC(C)C/C(=C\C=C\c3ccc(O)c(OC)c3)C2=O)ccc1O (stereo not drawn),> 200,1.41,–
O=C(Nc1ccc([N+](=O)[O-])cc1[N+](=O)[O-])C(=O)C(C(=O)c1ccc2ccccc2c1)C1OC(=O)c2ccccc21 (stereo not drawn),> 66.1,19.5,–
O=C1C(=O)c2c(nc3ccccn23)-c2ccccc21,> 2,0.427,–
Cc1ccccc1NC(=O)C(=O)Cc1cnc2ccccc2n1,> 162,> 162,–
CNS(=O)(=O)NN(C)S(=O)(=O)c1ccc(Cl)cc1,> 209,204,–
CC(=O)Nc1ccc(C(=O)NN2C(=O)C(Cl)C2c2ccc(Cl)cc2)cc1 (stereo not drawn),> 200,> 200,–
S=c1sc2ccccc2n1CN1CCCC1,> 200,102,–
CC(=O)NC(CCCNC(=O)N(C)N=O)C(=O)NCc1ccccc1 (stereo not drawn),> 708,> 708,–
O=S(=O)(O)c1cc(N=Nc2ccc(S(=O)(=O)c3ccc(N=Nc4cc(S(=O)(=O)O)c5cccnc5c4O)cc3)cc2)c(O)c2ncccc12,6.03,39.8,–
CC(=O)OC(C)(C)/C=C/C(=O)[C@](C)(O)[C@H]1[C@H](O)C[C@@]2(C)[C@@H]3CC=C4[C@@H](C=C(OC5OC(CO)C(O)C(O)C5O)C(=O)C4(C)C)[C@]3(C)C(=O)C[C@]12C (stereo partly drawn),> 200,9.77,–
CC1(C)O[C@@H]2[C@@H](COC(=O)c3ccccc3)C[C@@H](C#N)[C@@H]2O1,> 200,> 200,–
O=c1[nH]c(=O)n(C2OC(CO)C(O)C(F)C2O)cc1F (stereo not drawn),186,> 200,–
CN1CCCN(C)CCCN(C)CCCN(C)CCC1,> 100,> 100,–
O=c1c(O)c(-c2ccccc2)oc2ccccc12.[Zn+2],> 200,13.2,–
CN(C)c1ccc(C(=C2C=CC(=[N+](C)C)C=C2)c2ccc(N(C)C)cc2)cc1,–,–,inactive

Structure (SMILES),EC50 [µM],IC50 [µM],outcome
CN1c2ccccc2Sc2c1n[nH]c2-c1ccccc1,> 49,20.9,–
CSCCC(NCc1c(O)ccc2c(-c3ccccc3)cc(=O)oc12)C(=O)O (stereo not drawn),> 200,> 200,–
O=C1CCC(=O)N1CNc1cccc(NCN2C(=O)CCC2=O)c1,> 39.8,> 39.8,–
COC(=O)/C(=N/NC(C)(C)C)C(C(=O)OC)C(=O)C(=O)Nc1nc2ccc([N+](=O)[O-])cc2s1 (stereo not drawn),> 53.7,> 53.7,–
Cc1c(-c2ccccc2)c(=O)oc2ccc(Cl)cc12,–,–,inactive
COC12C=CC(CC1)C1=C2C(=O)c2nc(C)c(C)nc2C1=O (stereo not drawn),> 63.1,39.8,–
COc1cccc(/C=C2/S/C(=N/Nc3nc(C)c(C(C)=O)s3)NC2=O)c1O,> 200,32.4,–
O=C1CCCC(=O)N1n1c(Cc2ccc(Cl)cc2)n[nH]c1=O,> 200,> 200,–
O=c1c2ccccc2nc(-c2ccccc2Cl)n1NCC1(O)OCC(O)C(O)C1O (stereo not drawn),–,–,inactive
COC[C@H](C)N=CN1CCc2ccccc2C1(Cc1ccccc1)Cc1ccccc1,> 33.1,> 33.1,–
c1ccc(C(NC2CCCCC2NCCNC2CCCCC2NC(c2ccccc2)(c2ccccc2)c2ccccc2)(c2ccccc2)c2ccccc2)cc1 (stereo not drawn),> 200,6.17,–
CCOC(=O)C1=CC(C(C)CC(=O)CC(=O)O)CC1 (stereo not drawn),–,–,active
CC(=O)OC1(C(C)=O)CC2(c3ccccc3)OC1(c1ccccc1)c1ccccc12 (stereo not drawn),–,–,inactive
CCCCCC=C(c1cc(Cl)c(O)c(C(=O)NO)c1)c1cc(Cl)c(O)c(C(=O)NO)c1,> 200,35.5,–
CCC(=O)N=c1sc(SCc2ccccc2)nn1C(=O)SC (tested in a mixture with another compound),> 200,10.7,–
CCC[CH2][Sn]1([CH2]CCC)[O]Cc2nc(C)ccc2[O]1,> 14.1,3.16,–
COC(=O)[C@]1(C)CCC[C@]2(C)c3ccc(C(C)C)cc3C(=O)[C@@H](Br)[C@@H]12,> 200,8.51,–
Cc1ccccc1CN1CC=c2ccccc2=N1,51.3,129,–
CC(C)C(N)S(=O)(=O)O (stereo not drawn),> 200,> 200,–
S=C(Nc1ccc(Br)cn1)Nc1ccccc1-c1ccccc1,> 2,0.389,–
CCn1ncc2c(=O)n3ncn(-c4ccc(Br)cc4)c3nc21,–,–,inactive

Structure (SMILES),EC50 [µM],IC50 [µM],outcome
COC1/C=C/OC2(C)Oc3c(C)c(O)c4c(O)c(c(/C=N/N(c5ccccc5)c5ccccc5)c(O)c4c3C2=O)NC(=O)C(C)=C/C=C/C(C)C(O)C(C)C(O)C(C)C(OC(C)=O)C1C (stereo not drawn),> 200,7.41,–
COc1ccc2c(c1)C(=O)N1CCOC1C2C(=O)O (stereo not drawn),> 955,> 955,–
COc1ccccc1/C=C1\Sc2scc(-c3cccc([N+](=O)[O-])c3)[n+]2C1=O,–,–,inactive
c1ccc(CN2CCc3[nH]c4ccccc4c3C2)cc1,> 200,21.9,–
Cc1ccc(F)cc1NC(=O)O/N=C(\Cl)C(C)C,> 20,3.8,–
O=S(=O)(c1ccc(F)cc1)c1ccc(F)cc1,> 200,> 200,–
Cc1cc([N+](=O)[O-])ccc1Nc1cccc(Cl)c1C,–,–,inactive
O=C(NCc1ccccc1Cl)c1c(O)c2ccccc2[nH]c1=O,> 200,> 200,–
C=CCc1c(O)c2c(c3oc(=O)cc(C)c13)CC(C)O2 (stereo not drawn),–,–,inactive
COC(=O)C(C(=O)C(=O)Nc1ccc(OC)cc1[N+](=O)[O-])c1nc2cc(C)c(C)cc2[nH]c1=O (stereo not drawn),> 15.5,> 15.5,–
CCOC(=O)/C(=C/c1ccc(Cl)cc1)N(CC)CC,> 126,> 126,–
N[C@H]1c2c(Cl)cccc2C(=O)[C@H]1O,> 200,11,–
Cn1c(=O)n(CC2CS2)c2ccccc21 (stereo not drawn),> 1120,24.5,–
COc1ccc2c(c1)CCc1[nH]c3ccccc3c1CCCC2,> 61.7,57.5,–
CC(=O)NC(Cc1ccc2ccccc2c1)C(=O)NC(Cc1ccc(Cl)cc1)C(=O)NC(Cc1cccnc1)C(=O)NC(CO)C(=O)NC(Cc1ccc(O)cc1)C(=O)NC(CCCN=C(N)N)C(=O)NC(CC(C)C)C(=O)NC(CCCN=C(N)N)C(=O)N1CCCC1C(=O)NC(C)C(N)=O (stereo not drawn) (Ac-[2Nal][Phe(4-Cl)][3Pal]SYRLRPA-NH2; configuration not given here),> 61.7,15.1,–
CC(=O)Oc1ccc(/C=C/C(=O)NCCOC(=O)/C=C/c2ccc(OC(C)=O)c(OC(C)=O)c2)cc1OC(C)=O,> 100,15.1,–
Cc1ccc2oc(-c3nnc(N)s3)cc(=O)c2c1,> 28.2,> 28.2,–
OC1(c2ccccc2)CSC2=Nc3ccccc3C3CCN1N23 (stereo not drawn),> 200,36.3,–
